Data published in patent US11713344B2 (DONG-A ST CO., LTD., priority 2017, dated 2023).

Columns and labels:
[1] = target: Human GLP-1 receptors (Homo sapiens, UniProt P43220); assay: GLP-1 receptor activation assay (CRE-luciferase reporter, CHO-K1)
Description: (§1) Then, the resulting increased luciferase activity was evaluated as a measurement of the effect on each receptor activation.
(§2) After 3 hours of transfection, medium was exchanged to Alpha Minimal Essential Medium (α-MEM) comprising 10% fetal bovine serum (FBS). Next day, the medium was exchanged to α-MEM comprising the analog of the present invention and 0.1% bovine serum albumin (BSA). After 6 hours, dual luciferase assay reagent was added in the same amount as the medium in which the cells were submerged, and firefly luciferase and Renilla luciferase activities were continuously measured. Firefly luciferase activity values were corrected against Renilla luciferase activity to yield transfection efficiency.

[2] = target: Human glucagon receptors (Homo sapiens, UniProt P47871); assay: Glucagon receptor activation assay (CRE-luciferase reporter, CHO-K1)
Description: as §1, §2

[3] = Body weight loss efficacy by 5-day repeated injection vs Liraglutide and MEDI0382, obese mice (Exp. Ex. 10); format: in vivo, C57BL/6 mouse; details: 30 nmol/kg s.c. once a day x 4
Description: Male laboratory mice (C57BL/6 mouse) were given diet containing high fat. The mice with high-fat-diet-induced obesity were grouped by body weight before beginning the experiment. […] Body weight and food intake was measured once per day, at the same time each day.

Human GLP-1 receptors, sequence (P43220 24-463): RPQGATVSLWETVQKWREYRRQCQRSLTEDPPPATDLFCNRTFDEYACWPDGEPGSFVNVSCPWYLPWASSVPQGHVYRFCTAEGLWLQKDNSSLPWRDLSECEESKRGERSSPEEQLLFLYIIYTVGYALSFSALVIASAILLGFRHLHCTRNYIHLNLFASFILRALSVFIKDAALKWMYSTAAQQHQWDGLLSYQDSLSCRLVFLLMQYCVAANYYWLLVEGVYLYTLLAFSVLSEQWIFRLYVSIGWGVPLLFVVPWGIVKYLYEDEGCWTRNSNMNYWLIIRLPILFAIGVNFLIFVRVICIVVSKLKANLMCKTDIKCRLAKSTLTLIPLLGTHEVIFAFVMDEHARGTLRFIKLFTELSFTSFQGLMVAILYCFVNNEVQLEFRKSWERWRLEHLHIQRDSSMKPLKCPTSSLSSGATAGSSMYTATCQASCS
Human glucagon receptors, sequence (P47871 26-477): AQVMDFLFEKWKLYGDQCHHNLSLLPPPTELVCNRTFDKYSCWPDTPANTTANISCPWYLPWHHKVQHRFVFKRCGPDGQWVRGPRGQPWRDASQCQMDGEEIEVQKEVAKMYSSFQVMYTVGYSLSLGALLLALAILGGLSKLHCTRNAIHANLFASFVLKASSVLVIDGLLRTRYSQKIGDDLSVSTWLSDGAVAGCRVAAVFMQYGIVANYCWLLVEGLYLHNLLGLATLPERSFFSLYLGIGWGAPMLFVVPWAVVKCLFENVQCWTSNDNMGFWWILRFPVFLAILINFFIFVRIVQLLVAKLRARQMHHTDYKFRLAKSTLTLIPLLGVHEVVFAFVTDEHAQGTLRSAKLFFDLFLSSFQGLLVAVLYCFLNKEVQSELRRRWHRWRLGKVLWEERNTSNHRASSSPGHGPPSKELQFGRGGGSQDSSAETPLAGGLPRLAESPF

SMILES | EC50 [1] [nM] | EC50 [2] [nM] | body weight loss from baseline [3] [%]
CSCC[C@H](NC(=O)[C@H](CC(C)C)NC(=O)[C@H](Cc1c[nH]c2ccccc12)NC(=O)[C@H](CCC(N)=O)NC(=O)[C@@H](NC(=O)[C@H](Cc1ccccc1)NC(=O)[C@H](CC(=O)O)NC(=O)[C@H](CCC(N)=O)NC(=O)[C@H](C)NC(=O)[C@H](CCCNC(=N)N)NC(=O)[C@H](CCCNC(=N)N)NC(=O)C(C)(C)NC(=O)[C@H](CC(=O)O)NC(=O)[C@H](CC(C)C)NC(=O)[C@H](Cc1ccc(O)cc1)NC(=O)[C@H](CCCCN)NC(=O)[C@H](CO)NC(=O)[C@H](CCCCNC(=O)COCCOCCNC(=O)COCCOCCNC(=O)CC[C@H](NC(=O)CCCCCCCCCCCCCCC(=O)O)C(=O)O)NC(=O)[C@H](CC(=O)O)NC(=O)[C@H](CO)NC(=O)[C@@H](NC(=O)[C@H](Cc1ccccc1)NC(=O)[C@@H](NC(=O)CNC(=O)[C@H](CCC(N)=O)NC(=O)C(C)(C)NC(=O)[C@@H](N)Cc1c[nH]cn1)[C@@H](C)O)[C@@H](C)O)C(C)C)C(=O)N[C@@H](CC(N)=O)C(=O)N[C@H](C(=O)N[C@@H](CCCCN)C(=O)O)[C@@H](C)O [Compound 42] | 0.1 to 1 | > 1 | 
CSCC[C@H](NC(=O)[C@H](CC(C)C)NC(=O)[C@H](Cc1c[nH]c2ccccc12)NC(=O)[C@H](CCC(N)=O)NC(=O)[C@@H](NC(=O)[C@H](Cc1ccccc1)NC(=O)[C@H](CC(=O)O)NC(=O)[C@H](CCC(N)=O)NC(=O)[C@H](C)NC(=O)[C@H](CCCNC(=N)N)NC(=O)[C@H](CCCNC(=N)N)NC(=O)C(C)(C)NC(=O)[C@H](CC(=O)O)NC(=O)[C@H](CC(C)C)NC(=O)[C@H](Cc1ccc(O)cc1)NC(=O)[C@H](CCCCN)NC(=O)[C@H](CO)NC(=O)[C@H](CCCCNC(=O)COCCOCCNC(=O)COCCOCCNC(=O)CC[C@H](NC(=O)CCCCCCCCCCCCCCCCC(=O)O)C(=O)O)NC(=O)[C@H](CC(=O)O)NC(=O)[C@H](CO)NC(=O)[C@@H](NC(=O)[C@H](Cc1ccccc1)NC(=O)[C@@H](NC(=O)CNC(=O)[C@H](CCC(N)=O)NC(=O)C(C)(C)NC(=O)[C@@H](N)Cc1c[nH]cn1)[C@@H](C)O)[C@@H](C)O)C(C)C)C(=O)N[C@@H](CC(N)=O)C(=O)N[C@H](C(=O)N[C@@H](CCCCN)C(=O)O)[C@@H](C)O [Compound 43] | > 1 | > 1 | 
CSCC[C@H](NC(=O)[C@H](CC(C)C)NC(=O)[C@H](Cc1c[nH]c2ccccc12)NC(=O)[C@H](CCC(N)=O)NC(=O)[C@@H](NC(=O)[C@H](Cc1ccccc1)NC(=O)[C@H](CC(=O)O)NC(=O)[C@H](CCC(N)=O)NC(=O)[C@H](C)NC(=O)[C@H](CCCNC(=N)N)NC(=O)[C@H](CCCNC(=N)N)NC(=O)C(C)(C)NC(=O)[C@H](CC(=O)O)NC(=O)[C@H](CC(C)C)NC(=O)[C@H](Cc1ccc(O)cc1)NC(=O)[C@H](CCCCN)NC(=O)[C@H](CO)NC(=O)[C@H](CCCCNC(=O)COCCOCCNC(=O)COCCOCCNC(=O)CC[C@H](NC(=O)CCCCCCCCCCCCCCCCCCC(=O)O)C(=O)O)NC(=O)[C@H](CC(=O)O)NC(=O)[C@H](CO)NC(=O)[C@@H](NC(=O)[C@H](Cc1ccccc1)NC(=O)[C@@H](NC(=O)CNC(=O)[C@H](CCC(N)=O)NC(=O)C(C)(C)NC(=O)[C@@H](N)Cc1c[nH]cn1)[C@@H](C)O)[C@@H](C)O)C(C)C)C(=O)N[C@@H](CC(N)=O)C(=O)N[C@H](C(=O)N[C@@H](CCCCN)C(=O)O)[C@@H](C)O [Compound 44] | 0.1 to 1 | > 1 | 
CSCC[C@H](NC(=O)[C@H](CC(C)C)NC(=O)[C@H](Cc1c[nH]c2ccccc12)NC(=O)[C@H](CCC(N)=O)NC(=O)[C@@H](NC(=O)[C@H](Cc1ccccc1)NC(=O)[C@H](CC(=O)O)NC(=O)[C@H](CCC(N)=O)NC(=O)[C@H](C)NC(=O)[C@H](CCCNC(=N)N)NC(=O)[C@H](CCCNC(=N)N)NC(=O)C(C)(C)NC(=O)[C@H](CC(=O)O)NC(=O)[C@H](CC(C)C)NC(=O)[C@H](Cc1ccc(O)cc1)NC(=O)[C@H](CCCCN)NC(=O)[C@H](CO)NC(=O)[C@H](CCCCNC(=O)COCCOCCNC(=O)COCCOCCNC(=O)CC[C@H](NC(=O)CCCCCCCCCCCCCCC(=O)NCC(=O)O)C(=O)O)NC(=O)[C@H](CC(=O)O)NC(=O)[C@H](CO)NC(=O)[C@@H](NC(=O)[C@H](Cc1ccccc1)NC(=O)[C@@H](NC(=O)CNC(=O)[C@H](CCC(N)=O)NC(=O)C(C)(C)NC(=O)[C@@H](N)Cc1c[nH]cn1)[C@@H](C)O)[C@@H](C)O)C(C)C)C(=O)N[C@@H](CC(N)=O)C(=O)N[C@H](C(=O)N[C@@H](CCCCN)C(=O)O)[C@@H](C)O [Compound 45] | 0.1 to 1 | 0.1 to 1 | 
CSCC[C@H](NC(=O)[C@H](CC(C)C)NC(=O)[C@H](Cc1c[nH]c2ccccc12)NC(=O)[C@H](CCC(N)=O)NC(=O)[C@@H](NC(=O)[C@H](Cc1ccccc1)NC(=O)[C@H](CC(=O)O)NC(=O)[C@H](CCC(N)=O)NC(=O)[C@H](C)NC(=O)[C@H](CCCNC(=N)N)NC(=O)[C@H](CCCNC(=N)N)NC(=O)C(C)(C)NC(=O)[C@H](CC(=O)O)NC(=O)[C@H](CC(C)C)NC(=O)[C@H](Cc1ccc(O)cc1)NC(=O)[C@H](CCCCN)NC(=O)[C@H](CO)NC(=O)[C@H](CCCCNC(=O)COCCOCCNC(=O)COCCOCCNC(=O)CC[C@H](NC(=O)CCCCCCCCCCCCCCC(=O)N[C@H](C(=O)O)C(C)C)C(=O)O)NC(=O)[C@H](CC(=O)O)NC(=O)[C@H](CO)NC(=O)[C@@H](NC(=O)[C@H](Cc1ccccc1)NC(=O)[C@@H](NC(=O)CNC(=O)[C@H](CCC(N)=O)NC(=O)C(C)(C)NC(=O)[C@@H](N)Cc1c[nH]cn1)[C@@H](C)O)[C@@H](C)O)C(C)C)C(=O)N[C@@H](CC(N)=O)C(=O)N[C@H](C(=O)N[C@@H](CCCCN)C(=O)O)[C@@H](C)O [Compound 46] | 0.1 to 1 | 0.1 to 1 | 
CSCC[C@H](NC(=O)[C@H](CC(C)C)NC(=O)[C@H](Cc1c[nH]c2ccccc12)NC(=O)[C@H](CCC(N)=O)NC(=O)[C@@H](NC(=O)[C@H](Cc1ccccc1)NC(=O)[C@H](CCC(=O)O)NC(=O)[C@@H]1CCCCNC(=O)CC[C@H](NC(=O)[C@H](CC(=O)O)NC(=O)[C@H](CC(C)C)NC(=O)[C@H](Cc2ccc(O)cc2)NC(=O)[C@H](CCCCN)NC(=O)[C@H](CO)NC(=O)[C@H](Cc2ccc(O)cc2)NC(=O)[C@H](CC(=O)O)NC(=O)[C@H](CO)NC(=O)[C@@H](NC(=O)[C@H](Cc2ccccc2)NC(=O)[C@@H](NC(=O)CNC(=O)[C@H](CCC(N)=O)NC(=O)C(C)(C)NC(=O)[C@@H](N)Cc2c[nH]cn2)[C@@H](C)O)[C@@H](C)O)C(=O)N[C@@H](CCCCN)C(=O)N[C@@H](CCCNC(=N)N)C(=O)N[C@@H](C)C(=O)N1)C(C)C)C(=O)N[C@@H](CC(N)=O)C(=O)N[C@H](C(=O)N[C@@H](CCCCN)C(=O)N[C@@H](CS)C(=O)O)[C@@H](C)O [Compound 47, reference compound] | < 0.01 | 0.01 to 0.1 | 
CCCCCCCCCCCCCCCC(=O)N[C@@H](CCC(=O)NCCCC[C@H](NC(=O)[C@H](CC(=O)O)NC(=O)[C@H](CO)NC(=O)[C@@H](NC(=O)[C@H](Cc1ccccc1)NC(=O)[C@@H](NC(=O)CNC(=O)[C@H](CCC(N)=O)NC(=O)[C@H](CO)NC(=O)[C@@H](N)Cc1c[nH]cn1)[C@@H](C)O)[C@@H](C)O)C(=O)N[C@@H](CO)C(=O)N[C@@H](CCC(=O)O)C(=O)N[C@@H](Cc1ccc(O)cc1)C(=O)N[C@@H](CC(C)C)C(=O)N[C@@H](CC(=O)O)C(=O)N[C@@H](CO)C(=O)N[C@@H](CCC(=O)O)C(=O)N[C@@H](CCCNC(=N)N)C(=O)N[C@@H](C)C(=O)N[C@@H](CCCNC(=N)N)C(=O)N[C@@H](CC(=O)O)C(=O)N[C@@H](Cc1ccccc1)C(=O)N[C@H](C(=O)N[C@@H](C)C(=O)N[C@@H](Cc1c[nH]c2ccccc12)C(=O)N[C@@H](CC(C)C)C(=O)N[C@@H](CCC(=O)O)C(=O)N[C@@H](C)C(=O)NCC(=O)NCC(=O)O)C(C)C)C(=O)O [MEDI0382, reference compound] | < 0.01 | 0.01 to 0.1 | 8.0
